Experimental data reported in patent US10782295B2, “Cysteine-reactive ligand discovery in proteomes” (THE SCRIPPS RESEARCH INSTITUTE, priority 2013, dated 2020).

Experiments:
Test in all cases: competitive isoTOP-ABPP, MDA-MB-231 soluble proteome
Assay type in all cases: binding
[1] = target: T1, MAP2K6 (Homo sapiens, UniProt P52564); conditions: 100 μM LDE, 60 min; peptide MC*DFGISGYLVDSVAK
T1 construct: directly in native proteomes; endogenous in cells; host or cells: MDA-MB-231
T1 sequence (P52564 1-334): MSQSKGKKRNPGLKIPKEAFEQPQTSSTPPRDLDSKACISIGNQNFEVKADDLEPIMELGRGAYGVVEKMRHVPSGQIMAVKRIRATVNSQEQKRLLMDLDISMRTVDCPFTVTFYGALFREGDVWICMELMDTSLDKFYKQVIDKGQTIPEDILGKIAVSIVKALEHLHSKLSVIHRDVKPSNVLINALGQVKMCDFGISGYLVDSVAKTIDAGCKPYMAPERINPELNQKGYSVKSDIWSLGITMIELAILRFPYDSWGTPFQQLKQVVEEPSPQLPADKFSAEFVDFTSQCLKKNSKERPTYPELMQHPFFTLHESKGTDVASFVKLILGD
Method: (§1) Here, we envisioned that isoTOP-ABPP could be advanced to discover and quantify reactions between cysteines in proteomes and any electrophilic compound. In this advanced, ‘competitive’ version of isoTOP-ABPP (FIG. 1a), a proteome is treated with an electrophile (experimental sample) or DMSO (control sample). Both proteomic samples are then labeled with the IA probe and conjugated by CuAAC to light and heavy azide-biotin tags, respectively. The light and heavy samples are then mixed and subjected to our described isoTOP-ABPP protocol for enrichment, identification, and quantification of IA-labeled cysteines^30. Electrophile-modified cysteines are quantified by measuring the MS1 chromatographic peak ratios (R values) for heavy (DMSO-treated) over light (electrophile-treated) samples, with higher R values reflecting greater sensitivity to the electrophile. In this format, competitive isoTOP-ABPP can assay electrophiles against 1000+ cysteines in parallel directly in native proteomes without requiring any chemical modification to the electrophiles themselves.
(§2) Competitive isoTOP-ABPP experiments were performed in quadruplicate using the soluble proteome of the human breast cancer cell line MDA-MB-231 cell line. Proteomes were treated with 100 μM HNE, 15d-PGJ2, or 2-HD, for 60 minutes, followed by the IA-probe (100 μM, 60 min) A total of ˜1400 cysteine reactivities were quantified across the aggregate data set, with at least 900 cysteine reactivities quantified for each LDE (FIG. 2a) more than 750 of which were quantified for all the three electrophiles.
(§3) HNE was purchased from EMD biosciences, 15d-PGJ2 was purchased from Cayman Chemicals and 2-HD was purchased from Santa Cruz Biotechnology. Proteome samples were diluted to a 4 mg protein/mL solution in PBS. For each profiling experiment, one aliquot of the proteome sample (0.5 mL) was treated with 100 μM of LDE using 5 μL of a 10 mM stock and the other aliquot was treated with 5 μL of either ethanol (for HNE and 15d-PGJ2) or DMSO (for 2-HD) as control. For the concentration-dependent profiling experiments using HNE, aliquots of the proteomes (0.5 mL each) were treated with 5, 10, 50, 100 and 500 μM of HNE using 5 μL of 0.5, 1.0, 5, 10 and 50 mM of stock solution, respectively. After 60 minutes of treatment at room temperature, both the LDE-treated and control aliquots were passed through a NAP-5 Sephadex column (GE healthcare) to remove any unreacted LDE. The volume of each aliquot was increased to 1 mL with the concentration at 2 mg/mL after this step.
(§4) Each of the control and LDE-treated proteome samples (˜2 mg protein/mL in 1 mL volume) was treated with 100 μM of IA-probe using 10 μL of a 10 mM stock in DMSO. The labeling reactions were incubated at room temperature for 1 hour. Click chemistry (acetylene-azide cycloaddition) was performed by the addition of 100 μM of either the Heavy-TEV-Tag (for the control sample) or Light-TEV-Tag (for the LDE-treated sample) (20 μL of a 5 mM stock), 1 mM TCEP (fresh 50× stock in water), 100 μM ligand (17× stock in DMSO:t-Butanol 1:4) and 1 mM CuSO4 (50× stock in water). Samples were allowed to react at room temperature for 1 hour. After the click chemistry step, the light and heavy-labeled samples were mixed together and centrifuged (5900×g, 4 min, 4° C.) to pellet the precipitated proteins.
(§5) The pellets were washed twice in cold MeOH, after which the pellet was solubilized in PBS containing 1.2% SDS via sonication and heating (5 min, 80° C.). Samples were subjected to streptavidin enrichment of probe-labeled proteins, sequential on-bead trypsin and TEV digestion, and liquid chromatography-mass spectrometry (LC-MS) analysis according to the published isoTOP-ABPP protocol^30.
(§6) IA-probe labeled peptides were identified by SEQUEST2 and DTASelect3, and the quantification of heavy/light ratios (isoTOP-ABPP ratios, R) was performed by an in-house software (CIMAGE) as previously described. […]

[2] = target: T2, PEC1 (Homo sapiens, UniProt O75521); conditions: 100 μM LDE, 60 min; peptide WLSDEC*TNAVVNFLSR
T2 construct: directly in native proteomes; endogenous in cells; host or cells: MDA-MB-231
T2 sequence (O75521 39-394): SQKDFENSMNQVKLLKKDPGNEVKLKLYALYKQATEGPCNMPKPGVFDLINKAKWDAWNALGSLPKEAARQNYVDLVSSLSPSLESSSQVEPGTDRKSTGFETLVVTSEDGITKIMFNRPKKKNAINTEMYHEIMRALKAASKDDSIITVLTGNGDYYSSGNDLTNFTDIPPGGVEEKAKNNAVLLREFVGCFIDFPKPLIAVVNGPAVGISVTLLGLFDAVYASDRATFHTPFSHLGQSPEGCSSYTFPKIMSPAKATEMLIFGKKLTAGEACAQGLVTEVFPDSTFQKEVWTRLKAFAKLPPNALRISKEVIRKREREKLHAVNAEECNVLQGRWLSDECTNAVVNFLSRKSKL
Method: as §1, §2, §3, §4, §5, §6

[3] = target: T3, RPL23 (Homo sapiens, UniProt P62829); conditions: 100 μM LDE, 60 min; peptide ISLGLPVGAVINC*ADNTGAK
T3 construct: directly in native proteomes; endogenous in cells; host or cells: MDA-MB-231
Method: as §1, §2, §3, §4, §5, §6

[4] = target: T4, DYNC1L11 (Homo sapiens, UniProt Q9Y6G9); conditions: 100 μM LDE, 60 min; peptide SEQ ID NO: 25 (...NLWSC*ILSEVSTR)
T4 construct: directly in native proteomes; endogenous in cells; host or cells: MDA-MB-231
T4 sequence (Q9Y6G9 whole entry): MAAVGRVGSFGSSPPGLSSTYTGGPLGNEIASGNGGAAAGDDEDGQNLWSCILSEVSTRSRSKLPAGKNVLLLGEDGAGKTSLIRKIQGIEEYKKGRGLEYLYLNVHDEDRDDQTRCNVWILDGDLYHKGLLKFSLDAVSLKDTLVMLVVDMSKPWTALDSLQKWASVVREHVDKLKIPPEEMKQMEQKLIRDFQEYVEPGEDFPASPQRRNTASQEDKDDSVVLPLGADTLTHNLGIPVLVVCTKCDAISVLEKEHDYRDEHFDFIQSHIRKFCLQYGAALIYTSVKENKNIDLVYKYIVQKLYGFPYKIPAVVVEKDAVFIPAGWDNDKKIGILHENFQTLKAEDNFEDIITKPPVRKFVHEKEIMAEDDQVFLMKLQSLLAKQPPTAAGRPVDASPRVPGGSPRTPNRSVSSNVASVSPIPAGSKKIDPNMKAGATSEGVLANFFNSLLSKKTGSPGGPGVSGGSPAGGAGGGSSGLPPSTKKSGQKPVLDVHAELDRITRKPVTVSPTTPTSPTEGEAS
Method: as §1, §2, §3, §4, §5, §6

[5] = target: T5, MAPK9 (Homo sapiens, UniProt P45984); conditions: 100 μM LDE, 60 min; peptide TLEEFQDVYLVMELMDANLC*QVIHMELDHER
T5 construct: directly in native proteomes; endogenous in cells; host or cells: MDA-MB-231
T5 sequence (P45984 whole entry): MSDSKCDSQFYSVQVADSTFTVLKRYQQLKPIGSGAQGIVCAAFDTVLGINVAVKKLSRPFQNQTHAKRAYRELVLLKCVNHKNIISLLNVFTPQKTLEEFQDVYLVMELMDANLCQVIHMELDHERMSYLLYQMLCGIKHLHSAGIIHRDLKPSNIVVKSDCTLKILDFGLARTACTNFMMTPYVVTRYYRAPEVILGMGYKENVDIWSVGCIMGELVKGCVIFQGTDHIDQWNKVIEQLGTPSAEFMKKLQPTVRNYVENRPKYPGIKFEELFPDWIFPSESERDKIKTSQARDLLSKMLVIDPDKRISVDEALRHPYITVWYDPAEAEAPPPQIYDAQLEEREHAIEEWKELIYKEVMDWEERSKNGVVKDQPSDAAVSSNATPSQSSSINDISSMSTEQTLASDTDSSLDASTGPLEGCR
Method: as §1, §2, §3, §4, §5, §6

[6] = target: T6, HPCA (Homo sapiens, UniProt P84074); conditions: 100 μM LDE, 60 min; peptide LLQC*DPSSASQF
T6 construct: directly in native proteomes; endogenous in cells; host or cells: MDA-MB-231
Method: as §1, §2, §3, §4, §5, §6

CCCCCCCCCCCCC/C=C/C=O [2-HD, 2-trans-hexadecenal]
R value (isoTOP-ABPP ratio heavy/light) for IA-labeled cysteine of MAP2K6 [1]: 1.15
R value (isoTOP-ABPP ratio heavy/light) for IA-labeled cysteine of PEC1 [2]: 1.06
R value (isoTOP-ABPP ratio heavy/light) for IA-labeled cysteine of RPL23 [3]: 1.87
R value (isoTOP-ABPP ratio heavy/light) for IA-labeled cysteine of DYNC1L11 [4]: 1.1
R value (isoTOP-ABPP ratio heavy/light) for IA-labeled cysteine of MAPK9 [5]: 1.14
R value (isoTOP-ABPP ratio heavy/light) for IA-labeled cysteine of HPCA [6]: 1.13

CCCCCC(O)/C=C/C=O (stereo not drawn) [4-HNE, 4-Hydroxynonenal]
R value (isoTOP-ABPP ratio heavy/light) for IA-labeled cysteine of MAP2K6 [1]: 1.9
R value (isoTOP-ABPP ratio heavy/light) for IA-labeled cysteine of PEC1 [2]: 1.86
R value (isoTOP-ABPP ratio heavy/light) for IA-labeled cysteine of RPL23 [3]: 1.73
R value (isoTOP-ABPP ratio heavy/light) for IA-labeled cysteine of DYNC1L11 [4]: 2.59
R value (isoTOP-ABPP ratio heavy/light) for IA-labeled cysteine of MAPK9 [5]: 5.08
R value (isoTOP-ABPP ratio heavy/light) for IA-labeled cysteine of HPCA [6]: 2.17

CCCCC/C=C/C=C1/C(=O)C=C[C@@H]1C/C=C\CCCC(=O)O [PGJ2, 15-deoxy-Δ12,14-prostaglandin J2]
R value (isoTOP-ABPP ratio heavy/light) for IA-labeled cysteine of MAP2K6 [1]: 7.43
R value (isoTOP-ABPP ratio heavy/light) for IA-labeled cysteine of PEC1 [2]: 8.23
R value (isoTOP-ABPP ratio heavy/light) for IA-labeled cysteine of RPL23 [3]: 5.06
R value (isoTOP-ABPP ratio heavy/light) for IA-labeled cysteine of DYNC1L11 [4]: 5.18
R value (isoTOP-ABPP ratio heavy/light) for IA-labeled cysteine of MAPK9 [5]: 1.78
R value (isoTOP-ABPP ratio heavy/light) for IA-labeled cysteine of HPCA [6]: 7.21
